Laboratory results published in patent US20190292521A1, “COMPOSITION FOR PROMOTING GROWTH OF STEM CELLS COMPRISING PHYTOSPHINGOSINE-1-PHOSPHATE OR DERIVATIVES THEREOF, AND COMPOSITION FOR CULTURING MEDIA OF STEM CELLS COMPRISING SAME” (AXCESO BIOPHARMA CO., LTD., priority 2016, published 2019).
Read-outs that look alike come from different tables or passages of the source.

Experiments:
Format in all cases: cell-based
[1] = test system: human-derived adipose stem cells; assay: Stem cell viability according to concentration of fetal bovine serum (serum-free or low-serum medium); details: read-out: viability as compared with 10% fetal bovine serum
Procedure: Human-derived adipose stem cells were cultured in DMEM medium having different concentrations of fetal bovine serum at 37° C. under 5% CO2. After culturing for 24 hours, the cells were washed twice with PBS at 37° C. to remove the serum components. Then, the cells were cultured in new DMEM medium containing 1 μM P1P and 1% fetal bovine serum. After 4 days, the absorbance was measured at 450 nm using an Ez-Cytox Cell Viability Assay Kit (Daeil Biotech) to measure the viability of stem cells according the concentration of fetal bovine serum and P1P. For the control group, an experiment was performed under the same conditions as above except that P1P was not included.

[2] = test system: Human mesenchymal stem cells; assay: Measurement of stem cell proliferation capacity (Ez-Cytox, absorbance 450 nm); details: 1 uM; for increase of proliferation effect: cultured for 7 days, vs control without compound; for proliferation of stem cells: human mesenchymal stem cells, FIG. 1
Procedure: (§1) Human mesenchymal stem cells were cultured in DMEM medium (Invitrogen) containing 10% fetal bovine serum and 1% penicillin/streptomycin at 37° C. under 5% CO2, and the medium was changed every 3 days. After culturing the cells for 24 hours, P1P, cyclic P1P, and NAPS-1-P were dissolved in DMSO (Sigma) to a concentration of 2 mM, and appropriately diluted and added to the medium such that the final concentration was 1 μM. The absorbance was measured at 450 nm using Ez-Cytox at 24 hours (1 day), 48 hours (2 days), 120 hours (5 days) and 168 hours (7 days) after the addition, and the proliferation capacity of the stem cells according to P1P, cyclic P1P and NAPS-1 were measured. For the control group, an experiment was performed under the same conditions as above except that P1P, cyclic P1P and NAPS-1-P were not included.

[3] = test system: human-derived adipose stem cells; assay: Growth promoting capacity on human-derived adipose stem cells; details: cultured for 2 days, different concentrations; optimal effect at 10 nM and 100 nM, FIG. 2
Procedure: as §1
In addition, the growth promoting-capacity of human-derived adipose stem cells was examined.

[4] = test system: human-derived adipose stem cells; assay: Viability of stem cells with oxidative stress induced by hydrogen peroxide (H2O2); details: 6 hours after H2O2
Procedure: Human-derived adipose stem cells were cultured in DMEM medium containing 10% fetal bovine serum and 1% penicillin/streptomycin at 37° C. under 5% CO2. After culturing the cells for 24 hours, P1P, cP1P and NAPS-1-P were dissolved in DMSO to a concentration of 2 mM, and appropriately diluted and added to the medium such that the final concentrations were 10 nM, 100 nM, 1000 nM. After 1 hour of culture, 350 μM of H2O2 was added to the stem cells and cultured. After 6 hours, the absorbance was measured at 450 nm using Ez-Cytox, and the effect of P1P and derivatives thereof on the viability of stem cells against oxidative stress was measured. For the control group, an experiment was performed under the same conditions as above except that P1P, cyclic P1P, and NAPS-1-P were not included.

[5] = test system: human-derived adipose stem cells; assay: Osteogenic differentiation capacity (Alizarin Red S staining); details: osteogenic differentiation medium
Procedure: Human-derived adipose stem cells were cultured in DMEM medium containing 10% fetal bovine serum and 1% penicillin/streptomycin at 37° C. under 5% CO2. After 24 hours of culture, P1P and derivatives thereof were diluted with the medium and added. After 24 hours of culture, the medium was replaced with a differentiation medium and changed with a differentiation medium every 3 days. The cells were cultured in alpha-DEM medium containing 10% fetal bovine serum, 10 nM dexamethasone, 0.2 mM ascorbic acid, 10 mM beta-glycerol phosphate and 1% penicillin/streptomycin at 37° C. under 5% CO2 as a composition for the differentiation medium. After 2 to 4 weeks, the stem cells were fixed and stained with Alizarin Red S. After removing the stem cell culture medium, the cells were washed 3 times with PBS, and after removal of PBS, the cells were fixed using 4% formaldehyde solution for 20 minutes at room temperature. After washing the cells 3 times with PBS, the cells were treated with a 2% Alizarin Red S solution for 20 minutes. […] For the control group, an experiment was performed under the same conditions as above except that P1P, cyclic P1P, and NAPS-1-P were not included.

[6] = fetal bovine serum reduced to 2%

Row | SMILES | viability at 1 µM [1, 6] | viability at 1 µM ([1]; serum-free medium) | increase of proliferation effect [2] | proliferation of stem cells [2] | cell growth / proliferation effect [3] | Cell viability (%) by H2O2 treatment (350 uM) ([4]; compound 10 nM) | Cell viability (%) by H2O2 treatment (350 uM) ([4]; compound 100 nM) | Cell viability (%) by H2O2 treatment (350 uM) ([4]; compound 1000 nM) | osteogenic differentiation capacity [5]
1 | CCCCCCCCCCCCCC[C@@H](O)[C@@H](O)[C@H](COP(=O)(O)O)NC(C)=O [NAPS-1-P, N-acetyl phytosphingosine-1-phosphate] | 70 to 80% | ~50% | 2 fold | promoted the proliferation of stem cells to a similar level | showed a higher proliferation effect | 75% | 83% | 86% | 
2 | CCCCCCCCCCCCCC[C@@H](O)[C@H]1OP(=O)(O)OC[C@@H]1N [cP1P, O-cyclic P1P] | 70 to 80% | ~50% | 2 fold | promoted the proliferation of stem cells to a similar level | showed a higher proliferation effect | 77% | 84% | 86% | remarkably improved
